Converted amounts (≈) assume the structure as drawn. Like-named read-outs stand apart in the source and are kept apart here.
What was measured:
[1] = Plasma protein binding assay (PPB), equilibrium dialysis; assay type: in vitro ADME; conditions: bovine, 10% FCS in PBS, read-out: PPB 10% FCS (% fu)
Method: Binding of test compounds to plasma was determined using equilibrium dialysis (ED) and quantitative mass spectrometry interfaced with liquid chromatography (LC-MS). In brief, ED was performed with dialysis devices consisting of two chambers separated by a semipermeable membrane with a molecular weight cut-off of 5-10 kg/mol. One chamber was filled with 10% FCS in PBS containing 1-10 μmol/L test compound and the other chamber was filled with phosphate-buffer saline (PBS) with or without dextran. The dialysis chamber was incubated for 3-5 hours at 37° C. After incubation, protein was precipitated from aliquots of each chamber and the concentration of test compound in the supernatant of the plasma-containing compartment (cserum) and of the buffer-containing compartment (cbuffer) was determined by LC-MS. The fraction of unbound test compound (not bound to plasma) (fu) was calculated according to the following equation: […]

[2] = Solubility measurement (DMSO solution precipitation method); assay type: physicochemical; conditions: aqueous buffer, kinetic from dmso stock
Method: The DMSO solution is diluted with an aqueous medium (McIlvaine buffer with pH=4.5 or 6.8) to a final concentration of 250 μM. After 24 h of shaking at ambient temperature a potentially formed precipitate is removed by filtration. The concentration of the test compound in the filtrate is determined by LC-UV methods by calibrating the signal to the signal of a reference solution with complete dissolution of the test compound in acetonitrile/water (1:1) with known concentration.

LOVO cells = experiment: LOVO CTG proliferation assay (120 h) (CRC, G13D); assay type: cell-based; conditions: Homo sapiens
Method: LOVO cells (ATCC CCL-229) are dispensed into 384-well plates, flat and clear bottom (Greiner, PNr. 781091) at a density of 1000 cells per well in 60 μL DMEM (Sigma D6429)+10% Fetal Calf Serum (HyClone, PNr.: SH30084.03) and incubated at 37° C. in a CO2 incubator overnight. The next day, compounds (10 mM stock in DMSO) are added with the ECHO acoustic liquid handler system (Beckman Coulter), including DMSO controls. Plates are incubated for 120 h, and cell viability is measured using CellTiter-Glo luminescent cell viability reagent (Promega product code G7570). Viability (stated as percent of control) is defined as relative luminescence units RLU of each well divided by the RLU of cells in DMS0 controls. IC50 values are determined from viability measurements by non-linear regression using a four-parameter model.

KRAS (G12C)::SOS1 = molecular target: T1, KRAS (G12C)::SOS1 (Homo sapiens, UniProt P01116, C118S/C51S/C80L/G12C); experiment: KRAS::SOS1 AlphaScreen binding assay, KRAS G12C; conditions: read-out: KRASG12C IC50
T1 construct: KRAS (G12C) 1-169, N-terminal 6His-tag for purification, cleaved off; 6His-tag (N, cleaved yes); made in house
Description: This assay can be used to examine the potency with which compounds according to the invention binding to (mutated) KRAS inhibit the protein-protein interaction between SOS1 and (mutated) KRAS e.g., KRAS WT, KRAS G12C, KRAS G12D, KRAS G12V, KRAS G13D. […] Low IC50 values in this assay setting are indicative of strong inhibition of protein-protein interaction between SOS1 and KRAS:
These assays measure the inhibitory effect of compounds on KRAS mutant protein-protein interactions using the Alpha Screen technology by Perkin Elmer
The following (mutant) enzyme forms of KRAS and interacting proteins are used in these assays at the given concentrations: • KRAS (G12D) 1-169, N-terminal 6His-tag, C-terminal avi-tag (Xtal BioStructures, Inc.); final assay concentration 10 nM and SOS1 564-1049, N-terminal 229 GST-tag, TEV cleavage site (Viva Biotech Ltd); final assay concentration 5 nM; • KRAS (G12C) 1-169, N-terminal 6His-tag for purification, cleaved off, C-terminal avi-tag, biotinylated, mutations: C51S, C80L, C118S (in house); final assay concentration 7.5 nM and SOS1 564-1049, N-terminal 229 GST-tag, TEV cleavage site (Viva Biotech Ltd); final assay concentration 5 nM; • KRAS (G12V) 1-169, N-terminal 6His-tag for purification, cleaved off, C-terminal avi-tag, biotinylated, TEV cleavage site, mutation: C118S, GDP loaded (in house); final assay concentration 10 nM and SOS1 564-1049, N-terminal 229 GST-tag, TEV cleavage site (Viva Biotech Ltd); final assay concentration 10 nM; • KRAS (G13D) 1-169, N-terminal 6His-tag for purification, cleaved off, C-terminal avi-tag, biotinylated, TEV cleavage site, mutation: C118S, GDP loaded (in house); final assay concentration 10 nM and SOS1 564-1049, N-terminal 229 GST-tag, TEV cleavage site (Viva Biotech Ltd); final assay concentration 10 nM; • KRAS (WT) 1-169, N-terminal 6His-tag for purification, cleaved off, C-terminal avi-tag, biotinylated, TEV cleavage site, mutation: C118S, GDP loaded (in house); final assay concentration 10 nM and SOS1 564-1049, N-terminal 229 GST-tag, TEV cleavage site (Viva Biotech Ltd); final assay concentration 10 nM.
Test compounds dissolved in DMSO are dispensed onto assay plates (Proxiplate 384 PLUS, white, PerkinElmer; 6008289) using an Access Labcyte Workstation with the Labcyte Echo 55×. For the chosen highest assay concentration of 100 μM, 150 nL of compound solution are transferred from a 10 mM DMSO compound stock solution. A series of eleven fivefold dilutions per compound are transferred to the assay plate, compound dilutions are tested in duplicates. DMSO are added as backfill to a total volume of 150 nL.
The assays run on a fully automated robotic system in a darkened room below 100 Lux. To 150 nl of compound dilution 10 μl of a mix including KRAS mutant protein, SOS1 (final assay concentrations see above) and GDP nucleotide (Sigma G7127; final assay concentration 10 μM) in assay buffer (1×PBS, 0.1% BSA, 0.05% Tween 20) are added into columns 1-24.
After 30 minutes incubation time 5 μl of Alpha Screen bead mix in assay buffer are added into columns 1-23. Bead mix consists of AlphaLISA Glutathione Acceptor Beads (PerkinElmer, Cat No AL109) and AlphaScreen Streptavidin Donor Beads (PerkinElmer Cat No 6760002) in assay buffer at a final assay concentration of 10 μg/ml each.
Plates are kept at room temperature in a darkened incubator. After an additional 60 minutes incubation time the signal is measured in a PerkinElmer Envision HTS Multilabel Reader using the AlphaScreen specs from PerkinElmer.
Each plate contains up to 16 wells of a negative control depending on the dilution procedure (platewise or serial) (DMSO instead of test compound; with KRAS mutant::SOS1 GDP mix and bead mix; column 23) and 16wells of a positive control (DMSO instead of test compound; with KRAS mutant::SOS1 GDP mix w/o bead mix; column 24).
As internal control known inhibitors of KRAS mutant::SOS1 interaction can be measured on each compound plate. […]

[3] = McIlvaine buffer pH 4.5, 24 h, read-out: Solubility [μg/ml] pH 4.5
[4] = McIlvaine buffer pH 6.8, 24 h, read-out: Solubility [μg/ml] pH 6.8

T1 sequence (P01116 1-169 isoform P01116-2 G12C/C51S/C80L/C118S): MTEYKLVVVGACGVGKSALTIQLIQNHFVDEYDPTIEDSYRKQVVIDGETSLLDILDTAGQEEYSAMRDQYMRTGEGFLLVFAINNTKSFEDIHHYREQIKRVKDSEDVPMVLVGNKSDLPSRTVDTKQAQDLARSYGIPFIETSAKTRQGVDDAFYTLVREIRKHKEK

SMILES | fraction unbound [1] | solubility at 24 h [2, 3] | solubility at 24 h [2, 4] | IC50 (LOVO cells) | IC50 (KRAS (G12C)::SOS1)
C[C@H](Oc1cc(O[C@H]2CN(C)C(C)(C)C2)nc(-c2noc3c2CCC[C@@]32CCCc3sc(N)c(C#N)c32)n1)[C@@H]1CCCN1C [II-19] | 0.12 | > 161 µg/mL | > 164 µg/mL | 0.344 µM | 0.004 µM
C[C@H](Oc1cc(Oc2nccs2)nc(-c2onc3c2CCC[C@@]32CCCc3sc(N)c(C#N)c32)n1)[C@@H]1CCCN1C [Example I-1] | 0.25 | 95 µg/mL (≈ 161 µM) | < 1 µg/mL | 0.054 µM | 0.001 µM
C[C@H](Oc1cc(OCC2(N(C)C)CC2)nc(-c2noc3c2CCC[C@@]32CCCc3sc(N)c(C#N)c32)n1)[C@@H]1CCCN1C [II-21] | 0.72 | > 143 µg/mL | > 126 µg/mL | 0.186 µM | 0.003 µM
C[C@H](Oc1cc(O[C@@H]2CNC2(C)C)nc(-c2noc3c2CCC[C@@]32CCCc3sc(N)c(C#N)c32)n1)[C@@H]1C[C@@H](F)CN1C [II-31] | 0.31 | > 157 µg/mL | > 143 µg/mL | 0.202 µM | 0.001 µM
COc1c(OCC2(N(C)C)COC2)nc(-c2noc3c2CCC[C@@]32CCCc3sc(N)c(C#N)c32)nc1O[C@@H](C)[C@@H]1CCCN1C [II-25] | 0.48 | > 163 µg/mL | > 152 µg/mL | 0.035 µM | 0.002 µM
C[C@H](Oc1cc(Nc2cnccn2)nc(-c2noc3c2CCC[C@@]32CCCc3sc(N)c(C#N)c32)n1)[C@@H]1CCCN1C [II-14] | 0.1 | 67 µg/mL (≈ 115 µM) | 11 µg/mL (≈ 18.8 µM) | 0.96 µM | 0.003 µM
C[C@H](Oc1cc(N(C)C)nc(-c2noc3c2CCC[C@@]32CCCc3sc(N)c(C#N)c32)n1)[C@@H]1CCCN1C [II-10] | 0.08 | > 107 µg/mL | 95 µg/mL (≈ 178 µM) | 4.08 µM | 0.002 µM
C[C@H](Oc1cc(OCCO)nc(-c2noc3c2CCC[C@@]32CCCc3sc(N)c(C#N)c32)n1)[C@@H]1CCCN1C [II-6] | 0.72 | > 121 µg/mL | > 119 µg/mL | 0.781 µM | 0.001 µM

Other lines, results leading:

fraction unbound [1] | solubility at 24 h [2, 3] | solubility at 24 h [2, 4] | IC50 (LOVO cells) | IC50 (KRAS (G12C)::SOS1) | SMILES
0.07 | 2 µg/mL (≈ 3.4 µM) | < 1 µg/mL | 1.13 µM | 0.004 µM | C[C@H](Oc1cc(Nc2nccs2)nc(-c2noc3c2CCC[C@@]32CCCc3sc(N)c(C#N)c32)n1)[C@@H]1CCCN1C [II-12]
0.2 | > 157 µg/mL | 44 µg/mL (≈ 76.8 µM) | 0.5 µM | 0.002 µM | C[C@H](Oc1cc(Nc2ncco2)nc(-c2noc3c2CCC[C@@]32CCCc3sc(N)c(C#N)c32)n1)[C@@H]1CCCN1C [II-13]
0.45 | > 143 µg/mL | > 125 µg/mL | 0.027 µM | 0.002 µM | C[C@H](Oc1cc(OCC2(N(C)C)COC2)nc(-c2onc3c2CCC[C@@]32CCCc3sc(N)c(C#N)c32)n1)[C@@H]1CCCN1C [Example I-8]
0.57 | > 128 µg/mL | > 121 µg/mL | 0.035 µM | 0.001 µM | C[C@H](Oc1cc(Oc2cncnc2)nc(-c2onc3c2CCC[C@@]32CCCc3sc(N)c(C#N)c32)n1)[C@@H]1CCCN1C [Example I-3]
0.59 | > 145 µg/mL | > 146 µg/mL | 0.501 µM | 0.002 µM | C[C@H](Oc1cc(O[C@H]2CNC(C)(C)C2)nc(-c2noc3c2CCC[C@@]32CCCc3sc(N)c(C#N)c32)n1)[C@@H]1CCCN1C (single isomer, unassigned) [II-8]
0.31 | 23 µg/mL (≈ 39.5 µM) | 2 µg/mL (≈ 3.43 µM) | 0.595 µM | 0.003 µM | C[C@H](Oc1cc(Nc2ccccn2)nc(-c2onc3c2CCC[C@@]32CCCc3sc(N)c(C#N)c32)n1)[C@@H]1CCCN1C [Example I-6]
0.28 | 67 µg/mL (≈ 115 µM) | < 1 µg/mL | 0.297 µM | 0.002 µM | C[C@H](Oc1cc(Nc2ncccn2)nc(-c2noc3c2CCC[C@@]32CCCc3sc(N)c(C#N)c32)n1)[C@@H]1CCCN1C [II-17]

Source: US20250129095A1, “ANNULATED 2-AMINO-3-CYANO THIOPHENES AND DERIVATIVES FOR THE TREATMENT OF CANCER” (Boehringer Ingelheim Int'l GmbH Corp., priority 2021, published 2025)
